Laboratory results published in patent US20250197425A1, “2,6,9-TRISUBSTITUTED PURINES” (ASTRAZENECA AB, priority 2022, published 2025).

Columns and labels:
CDK2:CCNE1 = CDK2:CCNE1 (Homo sapiens (Human), UniProt P24941); test: NanoBRET assay in MCF-7 cells, CDK2; type: cell-based; conditions: transfected MCF-7 cells, 2 hours, n = 1 or average
Method in brief: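 In live MCF-7 cells, compound added followed by NanoBRET TE Tracer K-9 (stock 200 μM) for CDK2, 2 h at 37° C, 5% CO2.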

CDK1:CCNB1 = CDK1:CCNB1 (Homo sapiens (Human), UniProt P06493); test: NanoBRET assay in MCF-7 cells, CDK1; type: cell-based; conditions: NanoBRET, transfected MCF-7 cells, 2 hours; n = 1 or average; read-out: CDK1 IC50
Method in brief: (§1)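 Intracellular target engagement was measured by NanoBRET ratio (460 nm/610 nm) in live MCF-7 cells transiently carrying CDK4:CCND1 (Tracer K-7, 100 μM stock) or CDK1:CCNB1 (Tracer K-9, 400 μM stock).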

CDK4:CCND1 = CDK4:CCND1 (Homo sapiens (Human), UniProt P11802); test: NanoBRET assay in MCF-7 cells, CDK4; type: cell-based; conditions: NanoBRET, transfected MCF-7 cells, 2 hours; n = 1 or average; read-out: CDK4 IC50
Method in brief: as §1

[1] = test system: POLR2A Ser2 phosphorylation (CDK9); test: POLR2A Ser2 phosphorylation imaging assay in MCF-7 cells; type: cell-based; conditions: Homo sapiens, MCF7, 2 h, MCF-7 cells, 2 hours; read-out: POLR2A Ser2 phosphorylation IC50
Method in brief: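 MCF-7 cells were fixed, permeabilised and immunostained for POLR2A phospho-Ser2, then imaged by high-content microscopy. Levels were normalised to controls and IC50 values derived.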

[2] = biological target: 379 non-CDK kinase (or non-CDK kinase-complex) targets; test: Kinase profiling (SelectScreen, ThermoFisher); type: biochemical; conditions: compared with Compound 6
Description: Test compounds were profiled against a broad panel of kinases at ThermoFisher Scientific using the SelectScreen Kinase Profiling Services. Each kinase assay used one of the following assay technology protocols: • 1) Z-LYTE™ Screening Protocol and Assay Conditions (Revised 23 Jan. 2018 version) available at http://assets.thermofisher.com/TFS-Assets/BID/Methods-&-Protocols/20180123_SSBK_Customer_Protocol_and_Assay_Conditions.pdf; • 2) Adapta™ Screening Protocol and Assay Conditions (Revised 23 Jan. 2018 version) available at http://assets.thermofisher.com/TFS-Assets/BID/Methods-&-Protocols/20180123_SSBK_Adapta_Customer_Protocol_and_Assay_Conditions.pdf; or • 3) LanthaScreen™ Eu Kinase Binding Assay Screening Protocol and Assay Conditions (Revised 23 Jan. 2018 version) available at http://assets.thermofisher.com/TFS-Assets/BID/Methods-&-Protocols/20180123_SSBK_LanthaScreen_Binding_Customer_Protocol_and_Assay_Co nditions.pdf.

OVCAR3 cells = test: Cell proliferation CyQUANT assay, OVCAR3; type: cell-based; conditions: Homo sapiens, OVCAR-3, 168 h; CyQUANT cell counts, 7 days
Description: (§2) An imaging-based assay was used to investigate changes in cell number in OVCAR3 cells (CCNE1-amplified ovarian cancer cell line) and SKOV3 cells (non-amplified ovarian cancer cell line) treated with test compounds.
(§3) Cells were plated in 384 well plates (Perkin-Elmer 6057300) in RPMI-1640/10% FBS/1× L-Glu at 500 cells per well in 30 μL and incubated with test compound at 37° C. and 5% CO2 for 7 days. Cells were then stained using the CyQuant Direct Cell Proliferation Assay Kit (Thermo Cat #C7026) in accordance with the kit protocol. The stained cells were imaged using an Operetta high content imager to generate cell counts and IC50 values were calculated relative to DMSO controls.

SKOV3 cells = test: Cell proliferation CyQUANT assay, SKOV3; type: cell-based; conditions: Homo sapiens, SK-OV-3, 168 h; CyQUANT cell counts, 7 days
Description: as §2, §3

CDK4:CCND1, sequence (P11802 whole entry): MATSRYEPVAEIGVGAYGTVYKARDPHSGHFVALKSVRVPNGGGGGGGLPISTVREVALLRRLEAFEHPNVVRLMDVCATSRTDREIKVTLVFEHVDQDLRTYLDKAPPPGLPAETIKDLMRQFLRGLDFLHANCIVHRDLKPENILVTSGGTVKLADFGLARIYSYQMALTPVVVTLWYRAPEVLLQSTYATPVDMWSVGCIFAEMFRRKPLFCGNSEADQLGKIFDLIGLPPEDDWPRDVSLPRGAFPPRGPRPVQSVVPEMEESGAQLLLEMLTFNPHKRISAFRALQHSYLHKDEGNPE
CDK4:CCND1, sequence (P24385 whole entry partner): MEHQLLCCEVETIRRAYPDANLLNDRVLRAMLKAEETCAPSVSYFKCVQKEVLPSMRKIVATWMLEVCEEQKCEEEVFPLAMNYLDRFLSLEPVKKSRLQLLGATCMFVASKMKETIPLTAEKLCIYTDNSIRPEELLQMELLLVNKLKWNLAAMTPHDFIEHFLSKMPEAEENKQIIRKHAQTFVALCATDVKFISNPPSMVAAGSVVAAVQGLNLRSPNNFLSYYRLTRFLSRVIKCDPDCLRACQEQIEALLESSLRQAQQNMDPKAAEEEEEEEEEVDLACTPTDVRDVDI
CDK1:CCNB1, sequence (P06493 whole entry): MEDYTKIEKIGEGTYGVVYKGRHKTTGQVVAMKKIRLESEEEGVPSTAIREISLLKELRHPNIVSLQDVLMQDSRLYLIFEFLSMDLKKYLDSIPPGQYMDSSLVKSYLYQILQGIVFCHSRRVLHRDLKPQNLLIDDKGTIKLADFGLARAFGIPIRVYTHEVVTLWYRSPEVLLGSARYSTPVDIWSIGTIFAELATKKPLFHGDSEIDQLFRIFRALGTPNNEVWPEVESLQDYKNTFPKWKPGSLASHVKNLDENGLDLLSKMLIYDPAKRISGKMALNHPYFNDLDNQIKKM
CDK1:CCNB1, sequence (P14635 whole entry partner): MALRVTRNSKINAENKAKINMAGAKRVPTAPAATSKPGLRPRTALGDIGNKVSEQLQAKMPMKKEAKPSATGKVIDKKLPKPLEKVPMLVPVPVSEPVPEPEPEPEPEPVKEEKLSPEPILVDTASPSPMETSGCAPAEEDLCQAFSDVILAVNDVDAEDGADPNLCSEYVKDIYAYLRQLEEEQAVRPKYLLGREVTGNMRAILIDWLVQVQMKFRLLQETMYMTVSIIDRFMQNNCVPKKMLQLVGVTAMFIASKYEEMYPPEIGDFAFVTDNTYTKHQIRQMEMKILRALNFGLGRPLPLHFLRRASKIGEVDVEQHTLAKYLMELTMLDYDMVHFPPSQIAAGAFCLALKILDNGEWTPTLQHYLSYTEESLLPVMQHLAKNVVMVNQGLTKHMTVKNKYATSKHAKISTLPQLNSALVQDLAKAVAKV

Row | IC50 (CDK2:CCNE1) [nM] | IC50 (CDK1:CCNB1) [nM] | IC50 (CDK4:CCND1) [nM] | IC50 [1] [nM] | IC50 (OVCAR3 cells) [nM] | IC50 (SKOV3 cells) [nM] | Structure (SMILES) | kinase inhibition profile [2]
1 | 18 | 636 | 12800 | 6500 | – | – | CCn1cnc2c(N[C@H]3CCN(S(=O)(=O)NC)C3)nc(-c3cccc4c3CC[C@]4(C)O)nc21 (relative stereo) [Example 3, (S)-3-((9-ethyl-2-((R*)-1-hydroxy-1-methyl-2,3-dihydro-1H-inden-4-yl)-9H-purin-6-yl)amino)-N-methylpyrrolidine-1-sulfonamide] | broadly similar kinase inhibition profiles to Compound 6
2 | 9 | 114 | 1200 | 3900 | 53 | 1160 | CCn1cnc2c(N[C@@H]3CN(S(=O)(=O)c4ncc[nH]4)C[C@H]3F)nc(N[C@@H](CO)C3CC3)nc21 (relative stereo) [Example 17, (R)-2-((6-(((3R*,4R*)-1-((1H-imidazol-2-yl)sulfonyl)-4-fluoropyrrolidin-3-yl)amino)-9-ethyl-9H-purin-2-yl)amino)-2-cyclopropylethan-1-ol] | –
3 | 27 | 342 | 5800 | 17600 | 201 | 4040 | CCNS(=O)(=O)N1CC[C@H](Nc2nc(N[C@@H](CO)C3CC3)nc3c2ncn3C)C1 [Example 19, (S)-3-((2-(((R)-1-cyclopropyl-2-hydroxyethyl)amino)-9-methyl-9H-purin-6-yl)amino)-N-ethylpyrrolidine-1-sulfonamide] | broadly similar kinase inhibition profiles to Compound 6
4 | 43 | 1800 | > 29700 | > 30000 | 373 | 10700 | CCNS(=O)(=O)N1CC[C@H](Nc2nc(N[C@@H](CC)[C@@H](C)O)nc3c2ncn3C)C1 [Example 53, (S)—N-ethyl-3-((2-(((2R,3S)-2-hydroxypentan-3-yl)amino)-9-methyl-9H-purin-6-yl)amino)pyrrolidine-1-sulfonamide] | broadly similar kinase inhibition profiles to Compound 6
